Measurements: article PMC12040169 (PLOS Biology, 2025)

Assay: in vitro
Settings: human, hela cells, % viability

First: CC(=O)c1cccc(-c2cnc(Nc3ccc(N4CCOCC4)cc3)c3nccn23)c1 [CBK091217]
Second: CC(=O)c1ccc(-c2cnc(Nc3ccc(N4CCOCC4)cc3)c3nccn23)s1 [CBK091231]
The viability at 28.5 h, 10 µM of the first is lower: 91.5% for the first, 95.3% for the second.

First: COc1cc(CNc2ncc(-c3ccc(N4CCOCC4)cc3)n3ccnc23)cc(OC)c1OC [CBK091219]
Second: Clc1ccc(CNc2ncc(-c3ccc(N4CCOCC4)cc3)n3ccnc23)cc1Cl [CBK091229]
The viability at 28.5 h, 10 µM of the first is higher: 100% for the first, 84.3% for the second.

First: c1coc(CNc2ncc(-c3ccc(N4CCOCC4)cc3)n3ccnc23)c1 [CBK091220]
Second: CN(C)c1cccc(Nc2ncc(-c3ccc(N4CCOCC4)cc3)n3ccnc23)c1 [CBK091222]
The viability at 28.5 h, 10 µM of the first is higher: 102% for the first, 94.5% for the second.

Compared with `O=C(c1ccco1)N1CCN(c2ncc(-c3ccc(N4CCOCC4)cc3)n3ccnc23)CC1` [CBK091225], `COc1ccc(-c2cnc(N3CCOCC3)c3nccn23)cc1` [CBK091285] is lower in viability at 28.5 h, 10 µM: 92.6% for the first, 87.2% for the second.

First: COc1ccc(-c2cnc(Nc3ccc(N4CCOCC4)cc3)c3nccn23)cn1 [CBK091238]
Second: COc1ccc(NC(=O)c2ccc(-c3cnc(Nc4ccc(N5CCOCC5)cc4)c4nccn34)cc2)cc1 [CBK091240]
The viability at 28.5 h, 10 µM of the first is lower: 92% for the first, 96.7% for the second.

Going from `CCCC/C=C/c1cnc(Nc2ccc(N3CCOCC3)cc2)c2nccn12` [CBK091239] to `CCCC/C=C/c1cnc(N2CCOCC2)c2nccn12` [CBK091256], the viability at 28.5 h, 10 µM rises from 91.3% to 102%.

Compared with `O=C(O)/C=C/c1cccc(-c2cnc(N3CCOCC3)c3nccn23)c1` [CBK091263], `OCc1ccccc1-c1cnc(N2CCOCC2)c2nccn12` [CBK091265] is higher in viability at 28.5 h, 10 µM: 104% for the first, 110% for the second.

Going from `c1cc(-c2cnc(N3CCOCC3)c3nccn23)c2cccnc2c1` [CBK091270] to `c1cn2c(-c3ccoc3)cnc(N3CCOCC3)c2n1` [CBK091292], the viability at 28.5 h, 10 µM falls from 93.6% to 88.7%.

Compared with `CC(=O)NCCCCCC(=O)N1CCN(c2ccc(C(F)(F)F)cc2)CC1` [CBK091312], `COc1ccccc1C1OC(=O)CC1C(=O)N1CCN(c2ccc(C(F)(F)F)cc2)CC1` (stereo not shown) [CBK091313] is higher in viability at 28.5 h, 10 µM: 92.8% for the first, 111% for the second.

Compared with `Cc1ccc(S(=O)(=O)NCC(=O)N2CCN(c3ccc(Cl)cc3)CC2)cc1` [CBK091315], `Cc1ccc(S(=O)(=O)NCC(=O)Nc2ccc(Cl)nc2)cc1` [CBK091355] is higher in viability at 28.5 h, 10 µM: 93.3% for the first, 96.1% for the second.

Going from `COc1ccccc1C1OC(=O)CC1C(=O)N1CCN(c2ccc(Cl)cc2)CC1` (stereo not shown) [CBK091332] to `CC(=O)N[C@H](Cc1c[nH]c2ccccc12)C(=O)N1CCN(c2ccc(C)cc2)CC1` [CBK091333], the viability at 28.5 h, 10 µM rises from 86.2% to 91.1%.

Compared with `CCC(C)(C)C(=O)Nc1ccc(Cl)nc1` [CBK091334], `O=C(Nc1ccc(Cl)nc1)C(F)(F)F` [CBK091339] is higher in viability at 28.5 h, 10 µM: 96.4% for the first, 101% for the second.

Compared with `Cc1ccccc1C(=O)NCC(=O)Nc1ccc(Br)c2ccccc12` [CBK091343], `COC(C)(C(=O)Nc1ccc(Cl)nc1)c1cccc2ccccc12` (stereo not shown) [CBK091350] is higher in viability at 28.5 h, 10 µM: 98% for the first, 102% for the second.

Compared with `O=C(CC1CCCCC1)Nc1ccc(Cl)nc1` [CBK091349], `COc1ccc(C(N)C2(O)CCN(Cc3ccccc3)CC2)cc1` (stereo not shown) [CBK091386] is higher in viability at 28.5 h, 10 µM: 83.5% for the first, 107% for the second.

Same assay, conditions: human, hela cells, % viability, bulk resorufin, single well

Compared with `COc1ccccc1C1OC(=O)CC1C(=O)N1CCC(C(C)=O)(c2ccccc2)CC1` (stereo not shown) [CBK091324], `CC(=O)C1(c2ccccc2)CCN(C(=O)CNS(=O)(=O)c2ccc(C)cc2)CC1` [CBK091328] is lower in viability at 28.5 h, 10 µM: 104% for the first, 92.5% for the second.

First: N#CC1(c2ccccc2)CCN(C(=O)c2ccc([N+](=O)[O-])o2)CC1 [CBK091389]
Second: N#CC1(c2ccccc2)CCN(C(=O)CCC(F)(F)F)CC1 [CBK091399]
The viability at 28.5 h, 10 µM of the first is lower: 95.7% for the first, 97.7% for the second.

Compared with `CC(=O)[C@H]1C[C@@H](CC(=O)N2CCC(C#N)(c3ccccc3)CC2)C1(C)C` [CBK091393], `CC(C)(C)OC(=O)NCCCCC(=O)N1CCC(C#N)(c2ccccc2)CC1` [CBK091401] is lower in viability at 28.5 h, 10 µM: 91.5% for the first, 89.4% for the second.
